Results taken from US20080286393A1, “Method for the enrichment of the polyphenolic contents from unripe fruit rinds of Terminalia belerica and uses thereof” (priority 2007, published 2008).

How the values were obtained:
[1] = Oxygen Radical Absorption (or Absorbance) Capacity (ORAC); conditions: FIG. 6
Experimental: The antioxidant activity of the light-colored, enriched/concentrated (85%-100%) polyphenolic extract from the dried, unripe fruit rinds of Terminalia belerica was assayed by diphenylpicrylhydrazyl (DPPH), Oxygen Radical Absorption (or Absorbance) Capacity (ORAC) and the hydroxyl radical Absorption (or Absorbance) capacity (HORAC) studies, as per the validated procedures documented in Cosmetics and toiletries. Cosmeceuticals: Jang D I, Lee B J, Jeon C O, Jo N S, Park J H, Cho S Y, Lee H, Koh J S. 1998, J. Agric. Food Chem. (2001), 49, 4619-4626 and J. Agric. Food. […] The ORAC value of the light-colored, enriched/concentrated (85%-100%) polyphenolic extract from the dried, unripe fruit rinds of Terminalia belerica was 6237±640 μMol trolox equivalents/gram while the ORAC value of Vitamin C was 3400 μMol trolox equivalents/gram and that of grape seed extract was 4528 μMol trolox equivalents/gram.

[2] = Anti-oxidant activity: DPPH scavenging; conditions: FIG. 5
Experimental: The antioxidant activity of the light-colored, enriched/concentrated (85%-100%) polyphenolic extract from the dried, unripe fruit rinds of Terminalia belerica was assayed by diphenylpicrylhydrazyl (DPPH), Oxygen Radical Absorption (or Absorbance) Capacity (ORAC) and the hydroxyl radical Absorption (or Absorbance) capacity (HORAC) studies, as per the validated procedures documented in Cosmetics and toiletries. Cosmeceuticals: Jang D I, Lee B J, Jeon C O, Jo N S, Park J H, Cho S Y, Lee H, Koh J S. 1998, J. Agric. Food Chem. (2001), 49, 4619-4626 and J. Agric. Food. Chem. (2002), 50, 2772-2777.)

Row | SMILES | ORAC value [1] | SC50 scavenging activity [2] [µg/mL]
1 | O=C1O[C@H]([C@@H](O)CO)C(O)=C1O [Vitamin C] | 3400 μMol trolox equivalents/gram | 1.9
2 | Cc1cc(C(C)(C)C)c(O)c(C(C)(C)C)c1 [BHT, Butylated hydroxyl toluene] |  | 4.6
